Publication PMC11513893, “Discovery of Oral Degraders of the ROS1 Fusion Protein with Potent Activity against Secondary Resistance Mutations” (Journal of Medicinal Chemistry, 2024)
“And” between values parts separate entries of the source, which are not always exact repeats. Identical values can stand only once.

How the values were obtained:
ROS1 (G2032R) = ROS1 (G2032R) (Homo sapiens, UniProt P08922, G2032R); assay: Kinase assay; assay type: biochemical; conditions: average of duplicate measurements
ROS1 [1] = assay: ROS1 degradation in Ba/F3 cells (WES immunoblotting); assay type: cell-based; conditions: maximal degradation of ROS1 in Ba/F3 cells
Summary of the method: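 ROS1 and phospho-ROS1 (Tyr2274/2334) in Ba/F3 lysates quantified by capillary immunoassay (WES) with chemiluminescent detection, duplicate experiments. Levels expressed as AUC of the chemiluminescence peak.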

ROS1 (G2101A) = ROS1 (G2101A) (Homo sapiens, UniProt P08922, G2101A); assay: Kinase assay; assay type: biochemical; conditions: average of duplicate measurements
FES = FES (Homo sapiens, UniProt P07332); assay: Kinase assay; assay type: biochemical; conditions: average of duplicate measurements
ALK = ALK (Homo sapiens, UniProt Q9UM73); assay: Kinase assay; assay type: biochemical; conditions: average of duplicate measurements
ROS1 (L2086F) = assay: Degradation assay; assay type: cell-based; conditions: average of duplicate measurements
Protocol: However, the degradation selectivity of 9o often contrasts with its kinase binding selectivity as determined in cells treated with 9o where the kinase level was measurable by Western blot analysis. […] For example, FLT3, CHEK2, and FES, all with kinase binding at <10 nM, were only moderately or minimally degraded, if at all (Table 9).
Protein levels were analyzed using a WES instrument according to the WES User Guide from ProteinSimple in duplicate experiments. The samples were mixed with the fluorescent 5 master mix (ProteinSimple) and then heated at 95 °C for 5 min. Boiled samples, biotinylated protein ladder, antibody diluent, Streptavidin-HRP, primary antibodies, ProteinSimple horseradish peroxidase conjugated antirabbit or antimouse secondary antibodies, luminol-peroxide, and wash buffer were loaded into the WES plate (Wes 12–230 kDa Prefilled Plates with Split Buffer, ProteinSimple). The plates and capillary cartridges were loaded into the WES instrument, and protein separation, antibody incubation, and imaging were performed according to manufacturer’s instructions. Compass software (ProteinSimple) was used to acquire the data and to generate the virtual blot image reconstruction and chemiluminescence signal intensity electropherograms. […] Protein levels are expressed as the AUC of the peak chemiluminescence intensity. […]

CAMK2G = CAMK2G (Homo sapiens, UniProt Q13555); assay: Kinase assay; assay type: biochemical; conditions: average of duplicate measurements
[2] = test system: Ba/F3 ROS1 L2086F, S1986F/L2086F, S1986F/G2032R/L2086F; assay: Antiproliferation assay, resistant mutations involving L2086F; assay type: cell-based; conditions: Mus musculus, BaF3; Ba/F3 cells, summary of Table 6; read-out: potency against resistant mutations involving L2086F, S1986F/L2086F, S1986F/G2032R/L2086F
Protocol: To assess the 72 h effect of drug treatment on cell proliferation, 2000 to 3000 cells were plated in replicates of three in 96-well plates. The plates were placed in an incubator at 37 °C, 5% CO2 for 72 h. Following drug treatments, the cells were incubated with the Alamar Blue Assay reagent (BioRad), 5 μL each well for 4 h at 37 °C and 5% CO2. Luminescence was measured on a multiplate reader and analyzed. […] IC50 values were determined using a nonlinear regression model with a sigmoidal dose response in GraphPad. The data were collected based on triplicate experiments, and presented as mean ± SD.

ROS1 [3] = biological target: ROS1 (Homo sapiens, UniProt P08922); assay: Kinase assay; assay type: biochemical; conditions: average of duplicate measurements
[4] = Pharmacokinetics study in Sprague–Dawley rats; assay type: in vivo; conditions: rat
Protocol: Four to 6 weeks old Sprague–Dawley rats [Crl: CD (SD)] (SPF/VAF) were purchased from Charles River (Wilmington MA). Animals were quarantined/acclimated for 2–6 weeks prior to dose initiation. Sprague–Dawley rats were given oral administration of test compounds (20% PG, 5% Solutol, and 75% of 20% HP-β-CD in water) at different dose levels. After treatment with the compounds, whole blood was collected from each study animal by puncture of the tail vein (0.4 mL of whole blood from rats) into tubes containing K2EDTA at each time point. The plasma samples were divided into 2 aliquots (approximately equal in volume) and stored frozen at −75 ± 15 °C within 2 h of the collection until analysis.
The stock solution of the test compound (0.01 M) in DMSO was prepared and stored at −20 ± 5 °C. The desired serial concentrations of working reference analyte solutions were achieved by diluting a stock analyte solution with 50% acetonitrile (0.1% formic acid) in water solution. The bioanalytical LC–MS/MS method was developed for quantitative determination of each test compound in Sprague–Dawley rat plasma with acceptable selectivity, sensitivity, calibration curve, precision, and accuracy. The analytical method is applicable for the determination of test compounds in Sprague–Dawley rat plasma with a lower limit of quantification of 10.0 ng/mL and an upper limit of quantification of 5000 ng/mL. Five microliters of diluted supernatant was injected into the LC–MS/MS system (TSQ Quantis) and a SynergiTM 4 μm Fusion-RP 80 Å (50 × 2 mm) column using gradient elution and a Triple Quad mass spectrometer) for quantitative analysis. The mobile phases used were 0.1% formic acid in deionized water and 0.1% formic acid in acetonitrile. The pharmacokinetic parameters T1/2 (the biological half-life), Cmax (maximal concentration), Tmax (time at which Cmax is observed), and AUC (area under the plasma concentration–time curve) were calculated from the plasma concentration versus time data using WinNonlin (PhoenixTM, version 8.1, Mountain View, CA, USA).

FLT3 = FLT3 (Homo sapiens, UniProt P36888); assay: Kinase assay; assay type: biochemical; conditions: average of duplicate measurements
[5] = test system: Ba/F3 CD74-ROS1 non mutant; assay: Antiproliferation assay (Alamar Blue, 72 h); assay type: cell-based, mouse; conditions: Mus musculus, BaF3, 72 h, Ba/F3 cells, cell growth inhibition

FLT3, sequence (P36888 27-993, species assumed): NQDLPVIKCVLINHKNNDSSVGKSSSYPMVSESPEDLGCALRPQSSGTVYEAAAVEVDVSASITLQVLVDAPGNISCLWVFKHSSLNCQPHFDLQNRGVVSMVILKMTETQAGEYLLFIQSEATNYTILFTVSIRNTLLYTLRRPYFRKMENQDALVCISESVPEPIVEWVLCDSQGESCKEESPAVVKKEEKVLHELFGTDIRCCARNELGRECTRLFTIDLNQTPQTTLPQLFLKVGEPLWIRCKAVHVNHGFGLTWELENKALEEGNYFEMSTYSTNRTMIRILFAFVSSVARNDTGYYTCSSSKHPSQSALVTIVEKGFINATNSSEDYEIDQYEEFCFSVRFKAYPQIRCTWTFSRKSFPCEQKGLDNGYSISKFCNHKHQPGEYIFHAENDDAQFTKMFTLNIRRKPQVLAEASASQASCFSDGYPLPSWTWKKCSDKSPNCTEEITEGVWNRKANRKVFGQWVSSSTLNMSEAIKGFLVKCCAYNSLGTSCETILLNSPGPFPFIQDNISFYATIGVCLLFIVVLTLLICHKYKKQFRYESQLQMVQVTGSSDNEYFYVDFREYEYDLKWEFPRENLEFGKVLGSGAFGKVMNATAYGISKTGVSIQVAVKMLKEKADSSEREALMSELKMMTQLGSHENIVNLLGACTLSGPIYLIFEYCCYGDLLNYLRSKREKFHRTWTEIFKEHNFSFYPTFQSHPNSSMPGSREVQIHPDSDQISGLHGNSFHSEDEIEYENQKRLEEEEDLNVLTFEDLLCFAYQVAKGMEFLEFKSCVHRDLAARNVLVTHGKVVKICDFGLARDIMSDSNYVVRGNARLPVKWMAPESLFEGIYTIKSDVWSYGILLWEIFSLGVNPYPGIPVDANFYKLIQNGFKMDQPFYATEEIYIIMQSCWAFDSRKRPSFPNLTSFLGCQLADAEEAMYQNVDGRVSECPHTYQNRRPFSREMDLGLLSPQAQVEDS
FES, sequence (P07332 whole entry, species assumed): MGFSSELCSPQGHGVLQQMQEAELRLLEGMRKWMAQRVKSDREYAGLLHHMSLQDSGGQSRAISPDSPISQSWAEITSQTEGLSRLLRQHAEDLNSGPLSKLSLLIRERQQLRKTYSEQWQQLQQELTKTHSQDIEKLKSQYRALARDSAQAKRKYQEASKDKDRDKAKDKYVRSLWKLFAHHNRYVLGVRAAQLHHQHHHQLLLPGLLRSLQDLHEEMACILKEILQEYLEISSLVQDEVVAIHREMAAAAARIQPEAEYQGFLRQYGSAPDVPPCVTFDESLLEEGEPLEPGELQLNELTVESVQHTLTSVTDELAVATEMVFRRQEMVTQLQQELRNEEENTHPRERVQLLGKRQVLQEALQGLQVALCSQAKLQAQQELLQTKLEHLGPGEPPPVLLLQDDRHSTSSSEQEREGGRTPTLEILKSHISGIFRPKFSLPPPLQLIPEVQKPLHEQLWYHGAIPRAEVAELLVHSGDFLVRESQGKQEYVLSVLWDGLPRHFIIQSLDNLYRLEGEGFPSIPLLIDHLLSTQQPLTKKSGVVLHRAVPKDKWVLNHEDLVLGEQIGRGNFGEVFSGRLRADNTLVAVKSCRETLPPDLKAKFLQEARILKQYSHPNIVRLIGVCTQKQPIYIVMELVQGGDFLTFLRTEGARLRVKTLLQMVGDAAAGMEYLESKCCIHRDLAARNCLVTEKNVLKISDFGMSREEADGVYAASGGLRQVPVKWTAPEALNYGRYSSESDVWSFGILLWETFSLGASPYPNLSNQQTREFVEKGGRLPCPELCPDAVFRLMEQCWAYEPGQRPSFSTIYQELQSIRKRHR
ROS1 (Homo sapiens, UniProt P08922), sequence (P08922 1883-2347 limits assumed): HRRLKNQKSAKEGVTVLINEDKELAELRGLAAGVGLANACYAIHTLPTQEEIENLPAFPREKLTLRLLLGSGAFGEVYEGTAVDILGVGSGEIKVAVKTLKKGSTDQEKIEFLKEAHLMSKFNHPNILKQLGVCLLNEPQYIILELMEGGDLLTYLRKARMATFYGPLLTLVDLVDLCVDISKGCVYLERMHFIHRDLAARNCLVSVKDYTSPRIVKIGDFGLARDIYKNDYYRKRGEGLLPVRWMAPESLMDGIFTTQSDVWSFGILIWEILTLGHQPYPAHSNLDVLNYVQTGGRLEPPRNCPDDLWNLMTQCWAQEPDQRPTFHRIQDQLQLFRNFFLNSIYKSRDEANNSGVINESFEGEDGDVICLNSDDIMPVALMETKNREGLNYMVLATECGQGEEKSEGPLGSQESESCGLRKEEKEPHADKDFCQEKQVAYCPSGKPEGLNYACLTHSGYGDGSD
CAMK2G, sequence (Q13555 whole entry, species assumed): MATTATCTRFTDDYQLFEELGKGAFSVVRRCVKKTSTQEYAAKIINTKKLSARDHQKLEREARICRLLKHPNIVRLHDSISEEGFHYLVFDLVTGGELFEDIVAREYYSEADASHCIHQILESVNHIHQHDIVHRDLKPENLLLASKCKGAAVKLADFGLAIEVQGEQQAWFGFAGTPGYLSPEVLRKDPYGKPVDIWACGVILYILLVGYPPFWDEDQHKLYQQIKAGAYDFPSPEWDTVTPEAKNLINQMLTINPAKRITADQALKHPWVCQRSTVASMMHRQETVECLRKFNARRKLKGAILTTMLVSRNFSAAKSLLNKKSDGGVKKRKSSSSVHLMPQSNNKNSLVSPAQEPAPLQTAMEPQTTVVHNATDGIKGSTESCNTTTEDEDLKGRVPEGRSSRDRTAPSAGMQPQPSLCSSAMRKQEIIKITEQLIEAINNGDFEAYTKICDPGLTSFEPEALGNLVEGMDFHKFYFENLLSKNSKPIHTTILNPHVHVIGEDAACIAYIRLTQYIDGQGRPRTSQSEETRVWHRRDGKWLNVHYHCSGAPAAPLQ
ALK, sequence (Q9UM73 19-1620, species assumed): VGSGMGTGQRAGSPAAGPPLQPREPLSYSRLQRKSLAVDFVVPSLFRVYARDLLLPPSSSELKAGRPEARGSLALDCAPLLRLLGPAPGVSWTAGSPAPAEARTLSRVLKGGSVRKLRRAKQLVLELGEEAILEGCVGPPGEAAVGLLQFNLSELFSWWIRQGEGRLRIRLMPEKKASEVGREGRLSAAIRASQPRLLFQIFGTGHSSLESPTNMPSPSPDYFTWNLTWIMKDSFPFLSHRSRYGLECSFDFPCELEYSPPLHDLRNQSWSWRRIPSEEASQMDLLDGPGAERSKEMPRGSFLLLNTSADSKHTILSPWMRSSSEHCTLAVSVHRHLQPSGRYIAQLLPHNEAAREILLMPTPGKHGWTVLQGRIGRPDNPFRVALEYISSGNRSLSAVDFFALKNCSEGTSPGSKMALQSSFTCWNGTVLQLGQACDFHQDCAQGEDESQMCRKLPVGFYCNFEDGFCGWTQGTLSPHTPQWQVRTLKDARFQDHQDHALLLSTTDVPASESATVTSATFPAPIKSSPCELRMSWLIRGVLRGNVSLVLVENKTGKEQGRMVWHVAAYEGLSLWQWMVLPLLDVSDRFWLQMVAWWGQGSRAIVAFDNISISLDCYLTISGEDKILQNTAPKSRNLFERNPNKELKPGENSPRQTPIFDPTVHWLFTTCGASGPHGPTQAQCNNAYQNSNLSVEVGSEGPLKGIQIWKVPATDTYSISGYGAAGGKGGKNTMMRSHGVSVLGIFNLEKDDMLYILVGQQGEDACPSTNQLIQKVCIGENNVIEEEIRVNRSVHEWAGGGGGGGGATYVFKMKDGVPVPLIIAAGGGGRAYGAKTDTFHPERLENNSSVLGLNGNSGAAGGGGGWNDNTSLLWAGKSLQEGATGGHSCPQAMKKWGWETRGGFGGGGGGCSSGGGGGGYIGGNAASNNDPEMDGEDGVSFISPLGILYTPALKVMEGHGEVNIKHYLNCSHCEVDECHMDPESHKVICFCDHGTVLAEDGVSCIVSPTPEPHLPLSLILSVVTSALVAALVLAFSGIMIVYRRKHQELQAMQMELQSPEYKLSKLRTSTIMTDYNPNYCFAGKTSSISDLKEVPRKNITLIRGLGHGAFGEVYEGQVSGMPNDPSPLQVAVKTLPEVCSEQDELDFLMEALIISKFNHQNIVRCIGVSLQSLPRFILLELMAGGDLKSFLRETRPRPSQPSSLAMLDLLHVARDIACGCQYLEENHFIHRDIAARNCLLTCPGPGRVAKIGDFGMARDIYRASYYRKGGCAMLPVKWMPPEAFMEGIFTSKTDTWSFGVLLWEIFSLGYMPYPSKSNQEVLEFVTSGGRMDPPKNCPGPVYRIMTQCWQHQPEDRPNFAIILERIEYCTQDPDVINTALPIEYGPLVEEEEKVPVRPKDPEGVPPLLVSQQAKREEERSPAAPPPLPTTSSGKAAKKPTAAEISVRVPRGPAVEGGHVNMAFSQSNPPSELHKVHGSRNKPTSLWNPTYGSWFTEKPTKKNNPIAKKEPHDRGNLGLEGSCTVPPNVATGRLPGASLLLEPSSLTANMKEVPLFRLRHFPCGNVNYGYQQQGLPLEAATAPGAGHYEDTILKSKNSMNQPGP

COc1cc(N2CCC(N3CCN(CC4CCN(c5ccc6c(c5)CN(C5CCC(=O)NC5=O)C6=O)CC4)CC3)CC2)ccc1Nc1ncc(Cl)c(Nc2ccccc2P(C)(C)=O)n1 (stereo not shown) [9o, 3-(5-(4-((4-(1-(4-((5-Chloro-4-((2-(dimethylphosphoryl)phenyl)amino)pyrimidin-2-yl)amino)-3-methoxyphenyl)piperidin-4-yl)piperazin-1-yl)methyl)piperidin-1-yl)-1-oxoisoindolin-2-yl)piperidine-2,6-dione]
IC50 (ROS1 (G2032R)): 161 nM | Dmax (%) (ROS1) (ROS1 [1]): 99% | IC50 (ROS1 (G2101A)): 10.9 nM | IC50 (FES): < 10 nM and 7.5 nM | IC50 (ALK): 0.9 nM | DC50 (ROS1 (L2086F)): 5.4 nM | IC50 (CAMK2G): 48 nM | IC50 [2]: 1.9 to 66 nM | IC50 (ROS1 [3]): 0.8 nM | Cmax at 24 h ([4]; Sprague-Dawley [Crl: CD (SD)], plasma, 5 mg/kg po): 94 ng/mL | bioavailability ([4]; Sprague-Dawley [Crl: CD (SD)], plasma, 5 mg/kg po vs 0.5 mg/kg iv): 7.3% | AUC (po) ([4]; 5 mg/kg po): 1267 ng·h/mL | T1/2 ([4]; 5 mg/kg po): 7.32 h | Tmax ([4]; 5 mg/kg po): 2 h | IC50 (FLT3): < 10 nM and 3.5 nM | IC50 [5]: 1.1 ± 0.3 nM
